Results from ChEMBL document CHEMBL5506025, “Discovery of LLC0424 as a Potent and Selective in Vivo NSD2 PROTAC Degrader” (J Med Chem, 2024).
Active and inactive are the calls of the source. No cut-off for these calls is given here.

Legend:
[1] = molecular target: T1, Protein cereblon/Eukaryotic peptide chain release factor GTP-binding subunit ERF3A (Homo sapiens) (UniProt Q96SW2+P15170); assay: PROTAC activity at CRBN/GSPT1 in human SEM cells assessed as decrease in GSPT1 level at 2 uM measured upto 8 hrs by immunoblot analysis; assay type: cell-based
T1 sequence (P15170 whole entry, looked up): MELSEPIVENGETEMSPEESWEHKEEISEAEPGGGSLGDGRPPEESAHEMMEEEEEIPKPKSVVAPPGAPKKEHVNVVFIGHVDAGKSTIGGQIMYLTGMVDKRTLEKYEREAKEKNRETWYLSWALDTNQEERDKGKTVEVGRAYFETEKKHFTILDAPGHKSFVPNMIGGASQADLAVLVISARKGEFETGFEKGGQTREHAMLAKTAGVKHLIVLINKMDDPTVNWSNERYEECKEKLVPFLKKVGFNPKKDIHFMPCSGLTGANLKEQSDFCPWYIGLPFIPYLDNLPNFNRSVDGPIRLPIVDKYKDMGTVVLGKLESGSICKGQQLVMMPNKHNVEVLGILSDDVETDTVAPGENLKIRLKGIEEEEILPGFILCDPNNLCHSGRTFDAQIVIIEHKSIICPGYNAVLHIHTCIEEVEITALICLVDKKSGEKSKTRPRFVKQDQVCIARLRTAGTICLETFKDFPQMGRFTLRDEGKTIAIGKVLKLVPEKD
T1 sequence (Q96SW2 whole entry, looked up): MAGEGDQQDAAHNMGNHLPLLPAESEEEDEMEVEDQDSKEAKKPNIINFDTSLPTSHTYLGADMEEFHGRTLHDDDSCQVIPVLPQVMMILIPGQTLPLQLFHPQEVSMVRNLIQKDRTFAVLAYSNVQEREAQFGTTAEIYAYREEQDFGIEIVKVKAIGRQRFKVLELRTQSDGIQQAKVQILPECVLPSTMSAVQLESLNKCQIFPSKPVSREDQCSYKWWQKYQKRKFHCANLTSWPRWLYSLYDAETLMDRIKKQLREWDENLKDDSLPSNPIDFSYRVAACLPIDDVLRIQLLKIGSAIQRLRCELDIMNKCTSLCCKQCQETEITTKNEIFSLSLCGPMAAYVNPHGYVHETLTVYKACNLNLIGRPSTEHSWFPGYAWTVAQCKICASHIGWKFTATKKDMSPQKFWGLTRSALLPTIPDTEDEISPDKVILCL

[2] = molecular target: T2, Protein cereblon/Histone-lysine N-methyltransferase NSD2 (Homo sapiens) (UniProt O96028+Q96SW2); assay: PROTAC activity at CRBN/NSD2 in human SEM cells assessed as induction of NSD2 degradation at 2 uM preincubated for 12 hrs followed by compound washout and measured after 48 hrs by immunoblot analysis; assay type: cell-based
T2 sequence (O96028 whole entry, looked up): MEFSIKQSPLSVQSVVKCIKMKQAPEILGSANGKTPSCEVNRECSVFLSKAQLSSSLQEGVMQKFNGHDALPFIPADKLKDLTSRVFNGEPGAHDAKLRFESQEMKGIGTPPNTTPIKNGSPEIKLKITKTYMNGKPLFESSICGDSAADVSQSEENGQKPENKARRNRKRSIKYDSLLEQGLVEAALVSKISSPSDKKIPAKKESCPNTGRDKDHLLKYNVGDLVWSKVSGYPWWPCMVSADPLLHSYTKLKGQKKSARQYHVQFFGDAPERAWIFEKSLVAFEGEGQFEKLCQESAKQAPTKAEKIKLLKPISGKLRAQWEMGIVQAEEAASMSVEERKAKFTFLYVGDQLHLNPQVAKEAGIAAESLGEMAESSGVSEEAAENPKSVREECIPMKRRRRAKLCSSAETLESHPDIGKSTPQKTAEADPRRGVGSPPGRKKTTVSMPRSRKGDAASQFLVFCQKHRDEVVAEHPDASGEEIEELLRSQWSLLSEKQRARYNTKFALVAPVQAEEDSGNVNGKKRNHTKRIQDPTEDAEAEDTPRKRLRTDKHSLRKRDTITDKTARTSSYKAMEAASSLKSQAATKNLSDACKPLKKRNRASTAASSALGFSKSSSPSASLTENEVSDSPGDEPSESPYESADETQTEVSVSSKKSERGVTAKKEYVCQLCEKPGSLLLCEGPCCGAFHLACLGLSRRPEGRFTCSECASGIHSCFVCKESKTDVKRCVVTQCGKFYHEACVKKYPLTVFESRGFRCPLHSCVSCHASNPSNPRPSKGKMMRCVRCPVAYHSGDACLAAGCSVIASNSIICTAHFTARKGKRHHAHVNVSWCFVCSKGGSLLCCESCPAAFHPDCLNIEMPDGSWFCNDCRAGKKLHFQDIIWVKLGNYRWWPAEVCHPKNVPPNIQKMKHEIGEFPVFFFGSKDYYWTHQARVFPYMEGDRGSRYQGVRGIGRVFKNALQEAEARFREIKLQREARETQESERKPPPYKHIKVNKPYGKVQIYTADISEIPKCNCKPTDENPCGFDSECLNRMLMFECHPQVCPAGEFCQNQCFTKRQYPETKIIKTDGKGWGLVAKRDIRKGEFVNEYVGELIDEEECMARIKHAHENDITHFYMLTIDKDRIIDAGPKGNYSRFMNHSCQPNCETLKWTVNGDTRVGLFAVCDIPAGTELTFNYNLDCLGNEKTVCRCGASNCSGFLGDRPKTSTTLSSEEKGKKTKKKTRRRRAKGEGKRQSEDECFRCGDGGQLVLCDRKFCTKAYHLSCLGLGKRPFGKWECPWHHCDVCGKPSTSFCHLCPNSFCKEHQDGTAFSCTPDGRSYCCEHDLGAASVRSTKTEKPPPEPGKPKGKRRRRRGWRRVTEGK
T2 sequence (Q96SW2 whole entry, looked up): as the sequence (Q96SW2 whole entry, looked up) above

RPMI 8402 [3] = assay: Inhibition of colony formation in human RPMI 8402 cells at 2 uM administered every three days for 30 days by iodonitrotetrazolium chloride staining based microscopy analysis; assay type: functional, cell-based; settings: time 30.0 day
SEM cells [4] = assay: Downregulation of MS4A1 gene expression in human SEM cells measured after 14 days by RNA sequencing assay; assay type: functional, cell-based; settings: time 14.0 day
[5] = molecular target: T2, Protein cereblon/Histone-lysine N-methyltransferase NSD2 (Homo sapiens); assay: In vivo PROTAC activity at CRBN/NSD2 in SCID mouse xenografted with human SEM cells assessed as downregulation of NSD2 level at 60 mg/kg, iv for 5 days by Western blot analysis; assay type: functional, organism-based; settings: time 5.0 day
[6] = molecular target: T2, Protein cereblon/Histone-lysine N-methyltransferase NSD2 (Homo sapiens); assay: In vivo PROTAC activity at CRBN/NSD2 in SCID mouse xenografted with human SEM cells assessed as downregulation of NSD2 level at 60 mg/kg, ip for 5 days by Western blot analysis; assay type: functional, organism-based; settings: time 5.0 day
[7] = molecular target: Cereblon/Ikaros (Homo sapiens) (UniProt Q96SW2+Q13422); assay: PROTAC activity at CRBN/IKZF1 in human SEM cells assessed as decrease in IKZF1 level at 2 uM measured upto 8 hrs by immunoblot analysis; assay type: cell-based
[8] = molecular target: Protein cereblon/Histone-lysine N-methyltransferase, H3 lysine-36 specific (Homo sapiens) (UniProt Q96L73+Q96SW2); assay: PROTAC activity at CRBN/NSD1 in human SEM cells assessed as decrease in NSD1 level at 2 uM measured upto 8 hrs by immunoblot analysis; assay type: cell-based
[9] = molecular target: T2, Protein cereblon/Histone-lysine N-methyltransferase NSD2 (Homo sapiens); assay: PROTAC activity at CRBN/NSD2 in human SEM cells assessed as induction of NSD2 degradation incubated for 24 hrs by immunoblot analysis; assay type: cell-based; settings: dose 0.001-10 µM
SEM cells [10] = assay: Downregulation of TNFAIP3 gene expression in human SEM cells measured after 14 days by RNA sequencing assay; assay type: functional, cell-based; settings: time 14.0 day
[11] = molecular target: T2, Protein cereblon/Histone-lysine N-methyltransferase NSD2 (Homo sapiens); assay: PROTAC activity at CRBN/NSD2 in human SEM cells assessed as induction of NSD2 degradation at 0.5 to 2 uM measured after 24 hrs by immunoblot analysis; assay type: cell-based; settings: dose 0.5-2 µM
[12] = molecular target: T2, Protein cereblon/Histone-lysine N-methyltransferase NSD2 (Homo sapiens); assay: PROTAC activity at CRBN/NSD2 in human RPMI 8402 cells assessed as downregulation of H3K36Me2 level at 2 uM measured upto 24 hrs hrs by immunoblot analysis; assay type: cell-based
[13] = molecular target: T2, Protein cereblon/Histone-lysine N-methyltransferase NSD2 (Homo sapiens); assay: PROTAC activity at CRBN/NSD2 in human RPMI 8402 cells assessed as induction of NSD2 degradation at 2 uM pretreated with thalidomide for 2 hrs followed by compound addition and measured after 6 to 12 hrs by Western blot analysis; assay type: cell-based; settings: time 6-12 hrs
RPMI 8402 [14] = assay: Cytotoxicity against human RPMI 8402 cells assessed as inhibition of cell growth at 2 uM measured after 9 days by Celltiter-glo assay; assay type: functional, cell-based; settings: time 9.0 day
[15] = molecular target: T2, Protein cereblon/Histone-lysine N-methyltransferase NSD2 (Homo sapiens); assay: In vivo PROTAC activity at CRBN/NSD2 in SCID mouse xenografted with human SEM cells assessed as downregulation of NSD2 level at 60 mg/kg, ip for 5 days by immunohistochemical analysis; assay type: functional, organism-based; settings: time 5.0 day
[16] = molecular target: Protein cereblon/Histone-lysine N-methyltransferase NSD3 (Homo sapiens) (UniProt Q9BZ95+Q96SW2); assay: PROTAC activity at CRBN/NSD3 in human SEM cells assessed as decrease in NSD3 level at 2 uM measured upto 8 hrs by immunoblot analysis; assay type: cell-based
Protein cereblon/Histone-lysine N-methyltransferase NSD3 (Homo sapiens), sequence (Q96SW2 whole entry, looked up): as above
Protein cereblon/Histone-lysine N-methyltransferase NSD3 (Homo sapiens), sequence (Q9BZ95 whole entry, looked up): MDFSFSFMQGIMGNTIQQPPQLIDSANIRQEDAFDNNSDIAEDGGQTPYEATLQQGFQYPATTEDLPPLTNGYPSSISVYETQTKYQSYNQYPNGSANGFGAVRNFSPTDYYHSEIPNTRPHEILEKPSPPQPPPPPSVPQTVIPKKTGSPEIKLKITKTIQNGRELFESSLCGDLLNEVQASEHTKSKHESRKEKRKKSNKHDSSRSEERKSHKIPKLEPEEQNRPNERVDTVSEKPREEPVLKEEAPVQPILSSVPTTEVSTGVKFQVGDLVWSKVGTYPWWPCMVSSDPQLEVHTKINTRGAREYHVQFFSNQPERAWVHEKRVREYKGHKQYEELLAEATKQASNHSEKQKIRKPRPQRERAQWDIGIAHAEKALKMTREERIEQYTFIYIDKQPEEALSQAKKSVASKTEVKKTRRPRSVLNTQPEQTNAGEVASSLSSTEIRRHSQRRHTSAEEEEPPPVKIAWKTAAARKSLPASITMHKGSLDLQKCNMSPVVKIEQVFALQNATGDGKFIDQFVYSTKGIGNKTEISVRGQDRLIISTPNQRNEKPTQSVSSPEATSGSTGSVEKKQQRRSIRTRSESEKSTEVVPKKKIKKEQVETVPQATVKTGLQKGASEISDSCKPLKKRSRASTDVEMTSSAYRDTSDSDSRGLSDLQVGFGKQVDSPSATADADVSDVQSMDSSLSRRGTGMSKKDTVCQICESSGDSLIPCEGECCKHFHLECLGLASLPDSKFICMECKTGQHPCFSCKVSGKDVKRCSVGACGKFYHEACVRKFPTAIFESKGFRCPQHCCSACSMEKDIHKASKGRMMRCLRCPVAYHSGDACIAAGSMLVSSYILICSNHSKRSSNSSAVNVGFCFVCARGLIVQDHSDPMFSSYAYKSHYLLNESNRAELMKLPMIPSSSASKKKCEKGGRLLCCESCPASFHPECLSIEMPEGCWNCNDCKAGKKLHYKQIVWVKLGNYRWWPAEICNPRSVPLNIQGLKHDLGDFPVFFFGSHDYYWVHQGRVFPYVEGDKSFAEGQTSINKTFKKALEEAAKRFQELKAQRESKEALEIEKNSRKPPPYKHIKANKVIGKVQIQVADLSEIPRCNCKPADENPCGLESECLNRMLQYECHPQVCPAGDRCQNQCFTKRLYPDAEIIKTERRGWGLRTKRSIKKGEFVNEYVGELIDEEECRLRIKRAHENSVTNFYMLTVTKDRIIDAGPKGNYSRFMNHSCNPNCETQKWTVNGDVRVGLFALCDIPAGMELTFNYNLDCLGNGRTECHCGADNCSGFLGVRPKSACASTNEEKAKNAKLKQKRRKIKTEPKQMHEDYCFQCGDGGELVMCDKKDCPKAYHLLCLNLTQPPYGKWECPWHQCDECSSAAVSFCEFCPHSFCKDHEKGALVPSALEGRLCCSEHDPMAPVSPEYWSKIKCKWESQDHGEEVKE

[17] = molecular target: T2, Protein cereblon/Histone-lysine N-methyltransferase NSD2 (Homo sapiens); assay: PROTAC activity at CRBN/NSD2 in human SEM cells assessed as induction of NSD2 degradation at 2 uM incubated for 12 hrs by immunoblot analysis; assay type: cell-based
SEM cells [18] = assay: Downregulation of CD38 gene expression in human SEM cells measured after 14 days by RNA sequencing assay; assay type: functional, cell-based; settings: time 14.0 day
[19] = molecular target: Protein cereblon/Zinc finger protein Aiolos (Homo sapiens) (UniProt Q96SW2+Q9UKT9); assay: PROTAC activity at CRBN/IKZF3 in human SEM cells assessed as decrease in IKZF3 level at 2 uM measured upto 8 hrs by immunoblot analysis; assay type: cell-based
Protein cereblon/Zinc finger protein Aiolos (Homo sapiens), sequence (Q96SW2 whole entry, looked up): as the sequence (Q96SW2 whole entry, looked up) above
Protein cereblon/Zinc finger protein Aiolos (Homo sapiens), sequence (Q9UKT9 whole entry, looked up): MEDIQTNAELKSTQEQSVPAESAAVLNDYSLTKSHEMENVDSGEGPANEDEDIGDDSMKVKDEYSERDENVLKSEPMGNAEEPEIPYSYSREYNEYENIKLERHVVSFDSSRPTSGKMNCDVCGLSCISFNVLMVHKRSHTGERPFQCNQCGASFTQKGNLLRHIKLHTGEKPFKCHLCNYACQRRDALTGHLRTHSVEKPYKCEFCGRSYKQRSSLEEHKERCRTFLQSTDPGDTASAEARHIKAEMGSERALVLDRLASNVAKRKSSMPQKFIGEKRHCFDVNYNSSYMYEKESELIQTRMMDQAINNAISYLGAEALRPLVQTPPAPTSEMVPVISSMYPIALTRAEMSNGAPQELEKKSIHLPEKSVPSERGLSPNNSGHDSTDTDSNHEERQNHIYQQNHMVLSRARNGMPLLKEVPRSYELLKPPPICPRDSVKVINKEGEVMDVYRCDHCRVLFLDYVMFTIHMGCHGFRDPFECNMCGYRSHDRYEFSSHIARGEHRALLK

[20] = molecular target: T2, Protein cereblon/Histone-lysine N-methyltransferase NSD2 (Homo sapiens); assay: PROTAC activity at CRBN/NSD2 in human RPMI 8402 cells assessed as induction of NSD2 degradation at 2 uM measured after 4 to 8 hrs hrs by immunoblot analysis; assay type: cell-based; settings: time 4-8 hrs
SEM cells [21] = assay: Cytotoxicity against human SEM cells assessed as inhibition of cell growth at 2 uM measured after 9 days by Celltiter-glo assay; assay type: functional, cell-based; settings: time 9.0 day
[22] = molecular target: T2, Protein cereblon/Histone-lysine N-methyltransferase NSD2 (Homo sapiens); assay: In vivo PROTAC activity at CRBN/NSD2 in SCID mouse xenografted with human 22Rv1 cells assessed as downregulation of NSD2 level at 60 mg/kg, iv for 5 days by immunohistochemical analysis; assay type: functional, organism-based; settings: CWR22R, time 5.0 day
SEM cells [23] = assay: Downregulation of CD9 gene expression in human SEM cells measured after 14 days by RNA sequencing assay; assay type: functional, cell-based; settings: time 14.0 day
[24] = molecular target: Cereblon/Casein kinase I alpha (Homo sapiens) (UniProt P48729+Q96SW2); assay: PROTAC activity at CRBN/CK1alpha in human SEM cells assessed as decrease in CK1alpha level at 2 uM measured upto 8 hrs by immunoblot analysis; assay type: cell-based
Cereblon/Casein kinase I alpha (Homo sapiens), sequence (P48729 2-337 limits assumed): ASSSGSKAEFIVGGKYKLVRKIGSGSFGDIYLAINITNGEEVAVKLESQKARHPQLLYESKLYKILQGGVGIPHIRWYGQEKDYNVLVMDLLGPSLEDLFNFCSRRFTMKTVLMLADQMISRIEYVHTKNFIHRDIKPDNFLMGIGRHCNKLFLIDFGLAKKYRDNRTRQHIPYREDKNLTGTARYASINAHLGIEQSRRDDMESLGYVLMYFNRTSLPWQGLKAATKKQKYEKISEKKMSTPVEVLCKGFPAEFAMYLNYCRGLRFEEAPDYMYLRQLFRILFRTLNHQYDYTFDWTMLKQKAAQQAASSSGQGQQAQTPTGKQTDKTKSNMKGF
Cereblon/Casein kinase I alpha (Homo sapiens), sequence (Q96SW2 whole entry partner): as the sequence (Q96SW2 whole entry, looked up) above

[25] = molecular target: T2, Protein cereblon/Histone-lysine N-methyltransferase NSD2 (Homo sapiens); assay: In vivo PROTAC activity at CRBN/NSD2 in SCID mouse xenografted with human 22Rv1 cells assessed as downregulation of NSD2 level at 60 mg/kg, ip for 5 days by Western blot analysis; assay type: functional, organism-based; settings: CWR22R, time 5.0 day
[26] = molecular target: T2, Protein cereblon/Histone-lysine N-methyltransferase NSD2 (Homo sapiens); assay: PROTAC activity at CRBN/NSD2 in human RPMI 8402 cells assessed as induction of NSD2 degradation at 2 uM pretreated with MLN4924 for 2 hrs followed by compound addition and measured after 6 to 12 hrs by Western blot analysis; assay type: cell-based; settings: time 6-12 hrs
[27] = molecular target: T2, Protein cereblon/Histone-lysine N-methyltransferase NSD2 (Homo sapiens); assay: PROTAC activity at CRBN/NSD2 in human RPMI 8402 cells assessed as induction of NSD2 degradation at 2 uM measured after 12 to 24 hrs by immunoblot analysis; assay type: cell-based; settings: time 12-24 hrs
[28] = molecular target: T1, Protein cereblon/Eukaryotic peptide chain release factor GTP-binding subunit ERF3A (Homo sapiens); assay: PROTAC activity at CRBN/GSPT1 in human RPMI 8402 cells assessed as decrease in GSPT1 level at 2 uM by immunoblot analysis; assay type: cell-based
[29] = molecular target: T2, Protein cereblon/Histone-lysine N-methyltransferase NSD2 (Homo sapiens); assay: PROTAC activity at CRBN/NSD2 in human SEM cells assessed as downregulation of H3K36Me2 level at 2 uM measured after 8 hrs hrs by immunoblot analysis; assay type: cell-based
[30] = molecular target: T2, Protein cereblon/Histone-lysine N-methyltransferase NSD2 (Homo sapiens); assay: PROTAC activity at CRBN/NSD2 in human RPMI 8402 cells assessed as induction of NSD2 degradation at 0.5 to 2 uM measured after 24 hrs by immunoblot analysis; assay type: cell-based; settings: dose 0.5-2 µM
[31] = molecular target: T2, Protein cereblon/Histone-lysine N-methyltransferase NSD2 (Homo sapiens); assay: PROTAC activity at CRBN/NSD2 in human RPMI 8402 cells assessed as induction of NSD2 degradation at 2 uM pretreated with UNC6934 for 2 hrs followed by compound addition and measured after 6 to 12 hrs by Western blot analysis; assay type: cell-based; settings: time 6-12 hrs

Activity [1]: inactive | Activity [2]: inactive | Activity [5]: Active | Activity [6]: Active | Activity [7]: inactive | Activity [8]: inactive | Activity [9]: Dose-Dependent Effect | Activity [11]: Active | Activity [12]: Active | Activity [13]: inactive | Activity [15]: Active | Activity [16]: inactive | Activity [17]: Active | Activity [19]: inactive | Activity [20]: Active | Activity [22]: Active | Activity [24]: inactive | Activity [25]: Active | Activity [26]: inactive | Activity [27]: Active | Activity [28]: Active | Activity [29]: Active | Activity [30]: Active | Activity [31]: inactive
Compound: O=C1CCC(N2C(=O)c3ccc(N4CCC(NC(=O)c5ccc(NC(=O)c6ccc(CN(C(=O)c7ccc8c(c7)OCC(=O)N8)C7CC7)cc6)cc5)CC4)cc3C2=O)C(=O)N1 (stereo unspecified)
inhibition (RPMI 8402 [3]): Active | Activity (SEM cells [4]): Active | Activity (SEM cells [10]): Active | Activity (RPMI 8402 [14]): Active | Activity (SEM cells [18]): Active | Activity (SEM cells [21]): Active | Activity (SEM cells [23]): Active
